Data reported in the SangsterLogP compilation.

Row | SMILES | logP
1 | CCCCCCl | 3.11
2 | CCCCCCCCCCCCCC | 8
3 | CCCCI | 3.08
4 | CCCCCC(=O)OC | 2.42
5 | CCCI | 2.54
6 | CCCCCCCCC(=O)OC | 3.87
7 | C#CCCCCCCC | 4.51
8 | CCCCCCCCCl | 4.73
9 | CCCCOC(=O)CCCC | 3.36
10 | ClCC(Cl)(Cl)Cl | 2.66
11 | CCCCC(=O)OCC | 2.3
12 | CCN1CCCCC1 | 1.88
13 | CCCCF | 2
14 | CCOC=O | 0.27
15 | CCCCCCCCCCc1ccccc1 | 7.4
16 | CCC(C)(C)c1ccc(O)cc1 | 3.83
17 | C#CCC | 1.46
18 | CC(C)CCl | 2.39
19 | CC(C)C(C)(C)O | 1.48
20 | OC1CCCCCCC1 | 2.39
21 | CCOC(=O)C(C)C | 1.55
22 | C#CCCCCC | 3.32

Row | SMILES | logP
23 | CCC(C)(C)CC | 5.19
24 | CCCCCI | 3.62
25 | CC(=O)OC(C)C | 1.02
26 | CCC(=O)OC(C)C | 1.57
27 | CCCC(=O)CCC | 2.04
28 | ClCCCCCl | 2.24
29 | CC1CCCO1 (centres undefined) | 1.25
30 | CCCCCCI | 4.16
31 | CC(C)CBr | 2.53
32 | OC1CCCCCC1 | 1.83
33 | CCCCCCCCCCBr | 6
34 | C#CCCCCCC | 3.92
35 | C=CCC=CC | 3.16
36 | CCCOC(=O)CCC | 2.15
37 | CCCCCCCl | 3.66
38 | CCCC(C)(C)O | 1.53
39 | CCCOC(=O)CC | 1.71
40 | CC(C)Br | 2.1
41 | CCCC(=O)OCC | 1.71
42 | CCCCC(=O)CCCC | 2.88
43 | CCCCCCCCC | 5.65
44 | C=CCCC | 2.8
